Tested on: spontaneously hypertensive rats (SHR)
Assay: Hypotensive effect after oral administration, tail-cuff method
Assay type: in vivo, rat
Settings: SHR (male), 32 mg/kg body weight, 5 hours after administration vs before
Method: Each of the casein hydrolysate powders prepared in Example and Comparative Examples shown in Table 1 were administered orally to five 27-week-old spontaneously hypertensive rats (SHR) (male) at a dose of 32 mg/kg body weight. Blood pressure was measured before the administration and 5 hours after the administration by tail-cuff method with Tail-cuff PB-98 (manufacture by SOFTRON) to evaluate the change in blood pressure. As a control, casein was administered instead of the powders, and the same evaluation was made. Before the measurement of blood pressure, rats were warmed in a preheat box (manufactured by CSI JAPAN) at 45° C. for 8 minutes.
Further, in accordance with the above method, a dose-dependent hypotensive effect was tested using the casein hydrolysate powders prepared in Example 1.

## casein [Control]
  Blood pressure drop (average ± SD): −2.5 ± 7.5
Listed as casein
  Blood pressure drop (average ± SD): no change in blood pressure was observed

Source: patent US8580557B2, “Casein hydrolyzate, process for producing the same and use thereof” (Calpis Co., Ltd., priority 2003, dated 2013)
